According to article PMC5278707, “Structure-Activity Relationships of a Series of Echinocandins and the Discovery of CD101, a Highly Stable and Soluble Echinocandin with Distinctive Pharmacokinetic Properties” (Antimicrobial Agents and Chemotherapy, 2017):
Converted amounts (≈) assume the structure as drawn. Like-named read-outs stand apart in the source and are kept apart here. *1 amine or outer side, *2 acyl side, *3 side chain or, on linkers, in order; H or OH if unused. Where a SMILES comes first, the peptide text is derived from it. Bridges are numbered along the chain shown (N, C = ends). [ ]: non-standard residue; d: D form. The star is where a group is joined. pTerphenylCO(4''-OnC5H11) = CCCCCOc1ccc(-c2ccc(-c3ccc(C(=O)*)cc3)cc2)cc1; Orn(4R-OH,5R-OH) = O=C([C@H](C[C@@H](O)[C@@H](O)N[*:3])N[*:1])[*:2]; hTyr(3S-OH,4S-OH) = N[C@H](C(=O)O)[C@H](O)[C@@H](O)c1ccc(O)cc1; Pro(3S-OH,4S-Me) = C[C@H]1CN[C@H](C(=O)O)[C@H]1O; Hyp = O=C(O)[C@@H]1C[C@@H](O)CN1

How the values were obtained:
[1] = system: Aspergillus clavatus ATCC 10058; experiment: CLSI broth microdilution (M38-A2) MEC/MIC; assay type: cell-based; conditions: read at 68 h, stunted hyphal growth
Description: All yeast and mold isolates were obtained from the American Type Culture Collection (ATCC). Isolates were plated on an agar medium to verify purity, and single colonies were picked. Aspergillus isolates were resubcultured on potato dextrose slants and incubated for 7 days at 35°C. Candida isolates were streaked on SDA plates and incubated for 24 h at 35°C. RPMI 1640 medium (HyClone Laboratories, Logan, UT) and the inoculum for each organism were prepared according to Clinical and Laboratory Standards Institute (CLSI) guidelines ([27][–][29]). Stock solutions for all test articles were prepared in 100% dimethyl sulfoxide (DMSO). Susceptibility testing was performed using CLSI broth microdilution methods for Candida (M27-A3) and Aspergillus (M38-A2). Amphotericin B was tested at a range of 0.06 to 64 μg/ml; all other antifungal agents were tested at 0.015 to 16 μg/ml. […] MIC values are reported as the lowest drug concentration to yield a 50% reduction in the growth of Candida species tested compared to the control well. Minimum effective concentration (MEC) values are reported as the lowest drug concentration to yield the stunted hyphal growth of Aspergillus species tested compared to that of the control well.

[2] = single-dose pharmacokinetics in beagle dogs; conditions: male, dog, in vivo, iv, beagle dogs, single i.v. 1.4 mg/kg, 10-min slow bolus
Description: Four male, nonnaive beagle dogs received a single i.v. infusion (1.4 mg/kg) of test article over 10 min via a catheter placed in the cephalic vein. Blood draws (1.0 ml) were taken at 0.083, 0.33, 0.75, 1.5, 4.5, 12, 24, and 48 h. An additional blood draw at 72 h was obtained for CD101. Blood draws were taken from the jugular vein and were collected into K3 EDTA tubes. Following blood collection, the samples were immediately inverted several times and were held on wet ice pending centrifugation. The samples were centrifuged within ∼30 min of collection under refrigeration (∼5°C for ∼10 min at ∼2,000 g) to obtain plasma. The plasma samples were frozen immediately on dry ice after separation and were stored at approximately −70°C until analysis. Levels of test article in the plasma samples were measured by quantitative liquid chromatography-tandem mass spectrometry (LC-MS/MS) analysis compared to a calibration curve and an internal standard. Pharmacokinetic parameters were calculated from the plasma concentration-time data using standard noncompartmental methods and utilizing WinNonlin analysis software.

Aspergillus spp. = experiment: CLSI broth microdilution (M38-A2) MEC, whole panel; assay type: cell-based; conditions: 48 h, summary of Table 3
Description: (§1) All yeast and mold isolates were obtained from the American Type Culture Collection (ATCC). Isolates were plated on an agar medium to verify purity, and single colonies were picked. Aspergillus isolates were resubcultured on potato dextrose slants and incubated for 7 days at 35°C. Candida isolates were streaked on SDA plates and incubated for 24 h at 35°C. RPMI 1640 medium (HyClone Laboratories, Logan, UT) and the inoculum for each organism were prepared according to Clinical and Laboratory Standards Institute (CLSI) guidelines ([27][–][29]). Stock solutions for all test articles were prepared in 100% dimethyl sulfoxide (DMSO). Susceptibility testing was performed using CLSI broth microdilution methods for Candida (M27-A3) and Aspergillus (M38-A2). Amphotericin B was tested at a range of 0.06 to 64 μg/ml; all other antifungal agents were tested at 0.015 to 16 μg/ml. Plates were incubated at 35°C and were read from the bottom using a plate viewer after 24 and 48 h for Candida and after 48 h for Aspergillus. MIC values are reported as the lowest drug concentration to yield a 50% reduction in the growth of Candida species tested compared to the control well. Minimum effective concentration (MEC) values are reported as the lowest drug concentration to yield the stunted hyphal growth of Aspergillus species tested compared to that of the control well.

[3] = system: Candida krusei ATCC 14243; experiment: CLSI broth microdilution (M27-A3) MIC; assay type: cell-based; conditions: Pichia kudriavzevii, ATCC14243, 50% reduction in growth
Description: as §1

[4] = system: Candida parapsilosis ATCC 22019; experiment: CLSI broth microdilution (M27-A3) MIC; assay type: cell-based; conditions: Lodderomyces parapsilosis, ATCC22019, 50% reduction in growth
Description: as §1

[5] = system: Candida tropicalis ATCC 90874; experiment: CLSI broth microdilution (M27-A3) MIC; assay type: cell-based; conditions: 50% reduction in growth
Description: as §1

[6] = system: Candida lusitaniae ATCC 34134; experiment: CLSI broth microdilution (M27-A3) MIC; assay type: cell-based; conditions: Clavispora lusitaniae
Description: as §1

[7] = system: Candida albicans ATCC 90028; experiment: CLSI broth microdilution (M27-A3) MIC; assay type: cell-based; conditions: 50% reduction in growth
Description: as §1

[8] = system: Candida guilliermondii ATCC 34134; experiment: CLSI broth microdilution (M27-A3) MIC; assay type: cell-based; conditions: Meyerozyma guilliermondii, ATCC34134, 50% reduction in growth
Description: as §1

[9] = system: Candida glabrata ATCC 90030; experiment: CLSI broth microdilution (M27-A3) MIC; assay type: cell-based; conditions: Nakaseomyces glabratus, ATCC90030, 50% reduction in growth, read-out: MIC
Description: as §1

[10] = system: Aspergillus ochraceus ATCC 96919; experiment: CLSI broth microdilution (M38-A2) MEC/MIC; assay type: cell-based; conditions: 48 h, stunted hyphal growth
Description: as §1

[11] = system: Aspergillus candidus ATCC 13686; experiment: CLSI broth microdilution (M38-A2) MEC/MIC; assay type: cell-based; conditions: 48 h, stunted hyphal growth
Description: as §1

[12] = system: Aspergillus niger ATCC 16888; experiment: CLSI broth microdilution (M38-A2) MEC/MIC; assay type: cell-based; conditions: 48 h, stunted hyphal growth
Description: as §1

[13] = system: Aspergillus fumigatus ATCC MYA-3626; experiment: CLSI broth microdilution (M38-A2) MEC/MIC; assay type: cell-based; conditions: 48 h, stunted hyphal growth
Description: as §1

[14] = system: Aspergillus flavus ATCC 22546; experiment: CLSI broth microdilution (M38-A2) MEC/MIC; assay type: cell-based; conditions: 48 h, stunted hyphal growth
Description: as §1

[15] = system: Aspergillus fumigatus ATCC 204305; experiment: CLSI broth microdilution (M38-A2) MEC/MIC; assay type: cell-based; conditions: 48 h, stunted hyphal growth
Description: as §1

CCCCCOc1ccc(-c2ccc(-c3ccc(C(=O)N[C@H]4C[C@@H](O)[C@@H](O)NC(=O)[C@@H]5[C@@H](O)[C@@H](C)CN5C(=O)[C@H]([C@@H](C)O)NC(=O)[C@H]([C@H](O)[C@@H](O)c5ccc(O)cc5)NC(=O)[C@@H]5C[C@@H](O)CN5C(=O)[C@H]([C@@H](C)O)NC4=O)cc3)cc2)cc1 [Anidulafungin, anidulafungin] ({pTerphenylCO(4''-OnC5H11)}-[Orn(4R-OH,5R-OH)]T[Hyp][hTyr(3S-OH,4S-OH)]T[Pro(3S-OH,4S-Me)]; lactam 1-C)
MEC [1]: ≤0.015 µg/mL
clearance [2]: 0.783 mL/min/kg
Vd ([2]; read-out: V (volume of distribution)): 0.779 L/kg
half-life ([2]; read-out: t1/2 (converted)): 11.6 h
MEC values against all Aspergillus species tested (Aspergillus spp.): below 0.03 μg/ml
MIC ([3]; 24 h): 0.03 µg/mL (≈ 0.0263 µM)
MIC ([3]; 48 h): 0.06 µg/mL (≈ 0.0526 µM)
MIC ([4]; 24 h): 0.5 µg/mL (≈ 0.438 µM)
MIC ([4]; 48 h): 0.5 µg/mL (≈ 0.438 µM)
MIC ([5]; ATCC90874, 24 h): ≤ 0.015 µg/mL
MIC ([5]; ATCC90874, 48 h): ≤ 0.015 µg/mL
MIC ([6]; ATCC34134, 24 h): 0.125 µg/mL (≈ 0.11 µM)
MIC ([6]; ATCC34134, 48 h): 0.125 µg/mL (≈ 0.11 µM)
MIC ([7]; ATCC90028, 24 h): ≤ 0.015 µg/mL
MIC ([7]; ATCC90028, 48 h): ≤ 0.015 µg/mL
MIC ([8]; 24 h): 1 µg/mL (≈ 0.877 µM)
MIC ([8]; 48 h): 2 µg/mL (≈ 1.75 µM)
MIC ([9]; 24 h): 0.03 µg/mL (≈ 0.0263 µM)
MIC ([9]; 48 h): 0.03 µg/mL (≈ 0.0263 µM)
MEC [10]: 0.03 µg/mL
MEC [11]: ≤0.015 µg/mL
MEC [12]: ≤0.015 µg/mL
MEC [13]: ≤0.015 µg/mL
MEC [14]: ≤0.015 µg/mL
MEC [15]: ≤0.015 µg/mL
